From ChEMBL document CHEMBL6127051, “Hydrazinecarboxamides: Comprehensive review of their anticancer, anticonvulsive, anti-inflammatory, enzyme inhibition, antioxidant and other activities” (Eur J Med Chem, 2024)
One block for each molecule: values may come before it.

What was measured:
[1] = tested on: MCF7; assay: Antiproliferative activity against human MCF7 cells assessed as reduction in cell viability incubated for 72 hrs by MTT assay; type: functional, cell-based; details: MCF7, 72 h
[2] = tested on: A549; assay: Antiproliferative activity against human A549 cells assessed as reduction in cell viability by MTT assay; type: functional, cell-based
[3] = tested on: A549; assay: Antiproliferative activity against human A549 cells; type: functional, cell-based
[4] = tested on: Mus musculus; assay: Anticonvulsant activity in ip dosed MES induced Kunming mouse seizure model; type: functional
[5] = tested on: MCF7; assay: Antiproliferative activity against human MCF7 cells; type: functional, cell-based
[6] = tested on: MDA-MB-231; assay: Antiproliferative activity against human MDA-MB-231 cells; type: functional, cell-based
[7] = tested on: MCF7; assay: Antiproliferative activity against human MCF7 cells assessed as reduction in cell viability measured for 72 hrs by MTT assay; type: functional, cell-based; details: MCF7, 72 h
[8] = tested on: MCF7; assay: Anticancer activity against human MCF7 cells assessed as reduction in cell growth incubated for 24 hrs by MTT assay; type: functional, cell-based; details: MCF7, 24 h
[9] = tested on: NCI-H460; assay: Antiproliferative activity against human NCI-H460 cells by MTT assay; type: functional, cell-based
[10] = tested on: MCF7; assay: Antiproliferative activity against human MCF7 cells by MTT assay; type: functional, cell-based
[11] = tested on: MCF7; assay: Anticancer activity against human MCF7 cells assessed as reduction in cell growth measured after 3 days by MTT assay; type: functional, cell-based; details: MCF7, 72 h
[12] = tested on: MCF7; assay: Cytotoxicity against human MCF7 cells assessed as reduction in cell growth; type: functional, cell-based
[13] = tested on: Mus musculus; assay: Anticonvulsant activity in po dosed scPTZ induced mouse model measured after 4 hrs; type: functional
[14] = Antioxidant activity assessed as DPPH radical scavenging activity at 10 ug/ml; type: functional; details: dose 10.0 µg/ml
[15] = tested on: Mus musculus; assay: Anticonvulsant activity in ip dosed scPTZ induced Kunming mouse seizure model; type: functional
[16] = tested on: HepG2; assay: Antiproliferative activity against human HepG2 cells assessed as reduction in cell viability measured for 24 hrs by MTT assay; details: HepG2, 24 h
[17] = tested on: A549; assay: Antiproliferative activity against human A549 cells assessed as reduction in cell viability measured for 24 hrs by MTT assay; details: A549, 24 h
[18] = biological target: T1, Retinoic acid receptor RXR-alpha (Homo sapiens, UniProt P19793); assay: Antagonist activity at RXRalpha (unknown origin) by Alpha Screen assay
T1 sequence (P19793 whole entry): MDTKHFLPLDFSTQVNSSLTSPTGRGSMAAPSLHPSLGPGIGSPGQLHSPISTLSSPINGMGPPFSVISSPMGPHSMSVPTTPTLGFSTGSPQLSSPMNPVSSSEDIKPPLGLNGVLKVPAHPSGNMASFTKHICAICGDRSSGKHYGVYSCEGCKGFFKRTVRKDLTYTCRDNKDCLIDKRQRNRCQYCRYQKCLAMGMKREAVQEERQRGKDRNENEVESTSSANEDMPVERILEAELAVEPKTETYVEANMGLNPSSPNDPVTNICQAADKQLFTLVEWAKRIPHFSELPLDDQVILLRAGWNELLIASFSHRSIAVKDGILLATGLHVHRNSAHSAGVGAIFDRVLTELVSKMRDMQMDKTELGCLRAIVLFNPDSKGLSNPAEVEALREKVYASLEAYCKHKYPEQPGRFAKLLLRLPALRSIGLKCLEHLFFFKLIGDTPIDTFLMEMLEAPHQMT

[19] = tested on: HepG2; assay: Cytotoxicity against human HepG2 cells assessed as reduction in cell viability by MTT assay; type: functional, cell-based
[20] = tested on: HCT-116; assay: Cytotoxicity against human HCT-116 cells assessed as reduction in cell viability by MTT assay; type: functional, cell-based
[21] = tested on: MCF7; assay: Cytotoxicity against human MCF7 cells assessed as reduction in cell viability by MTT assay; type: functional, cell-based
[22] = tested on: HeLa; assay: Cytotoxicity against human HeLa cells assessed as reduction in cell viability by MTT assay; type: functional, cell-based
[23] = Inhibition of Escherichia coli beta-glucuronidase
[24] = biological target: Cholinesterase (Equus caballus, UniProt P81908); assay: Inhibition of equine serum BChE using butyrylthiocholine iodide as substrate measured after 15 mins by Ellman's method
Sequence of Cholinesterase (P81908 whole entry): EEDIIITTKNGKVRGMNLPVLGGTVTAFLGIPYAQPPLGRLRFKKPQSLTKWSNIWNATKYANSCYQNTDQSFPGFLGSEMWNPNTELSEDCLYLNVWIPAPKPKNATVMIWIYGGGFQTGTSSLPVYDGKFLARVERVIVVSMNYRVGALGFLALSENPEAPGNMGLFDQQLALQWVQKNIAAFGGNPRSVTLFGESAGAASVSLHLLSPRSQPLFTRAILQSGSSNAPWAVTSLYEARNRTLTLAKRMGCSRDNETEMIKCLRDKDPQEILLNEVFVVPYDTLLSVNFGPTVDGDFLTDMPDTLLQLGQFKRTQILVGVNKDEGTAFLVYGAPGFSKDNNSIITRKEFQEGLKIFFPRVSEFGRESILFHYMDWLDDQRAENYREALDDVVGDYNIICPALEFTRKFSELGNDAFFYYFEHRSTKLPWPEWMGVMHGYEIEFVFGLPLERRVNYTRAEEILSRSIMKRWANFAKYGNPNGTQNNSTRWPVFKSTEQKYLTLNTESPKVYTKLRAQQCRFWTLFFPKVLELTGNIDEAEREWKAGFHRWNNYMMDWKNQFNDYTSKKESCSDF

[25] = Antiproliferative activity against human MRC5 cells assessed as reduction in cell growth; type: toxicity, cell-based
[26] = tested on: PANC-1; assay: Induction of apoptosis in human PANC-1 cells assessed as apoptotic cells at 2 uM incubated for 24 hrs by flow cytometric analysis relative to control; type: functional
[27] = tested on: A549; assay: Anticancer activity against human A549 cells assessed as inhibition of cell growth at 3 uM incubated for 48 hrs by MTT assay relative to control; type: functional; set-up: scale not given: the % may be the effect or the level left
[28] = tested on: PC-3; assay: Anticancer activity against human PC-3 cells assessed as inhibition of cell growth at 3 uM incubated for 48 hrs by MTT assay relative to control; type: functional; set-up: scale not given: the % may be the effect or the level left

IC50 [1]: 1 µM
IC50 [2]: 4 µM
IC50 [3]: 1.5 µM
SMILES: COc1cc(NC(C)CCCNC(=O)NNC(=O)NC(c2ccccc2)c2ccccc2)c2ncccc2c1 (centres undefined)

SMILES: COc1cc(C(=O)NN2C(=O)C(=O)N(C(C)C)C2=O)cc2c1OCCO2
ED50 [4]: 7.6 mg/kg

IC50 [5]: 9.03 µM
IC50 [6]: 9.03 µM
IC50 [7]: 1.2 µM
SMILES: Cc1ccc(NC(=O)NNC(=O)c2cc3ccccc3[nH]2)cc1

IC50 [8]: 218 µM
SMILES: NNC(=O)Nc1nc2ccccc2o1

IC50 [9]: 8.89 µM
IC50 [10]: 8.89 µM
SMILES: Cc1nc(-c2cccnc2)ccc1C(=O)NNC(=O)Nc1c(Cl)cc(Cl)cc1Cl

IC50 [11]: 0.03 µM
SMILES: COc1cc(NC(C)CCCNC(=O)NNC(=O)/C=C/c2ccccc2)c2ncccc2c1 (centres undefined)

IC50 [11]: 0.03 µM
SMILES: COc1cc(NC(C)CCCNC(=O)NNC(=O)/C=C/c2ccc3c(c2)OCO3)c2ncccc2c1 (centres undefined)

SMILES: O=C(NNC(=O)n1nnc2ccccc21)NC1CCCC1
IC50 [12]: 79 µM

SMILES: CC1(C)CC12NC(=O)N(Nc1ccc(F)cc1)C2=O (centres undefined)
ED50 [13]: 61.8 mg/kg

SMILES: O=C(NNC(=O)n1nnc2ccccc21)NC(=O)c1ccccc1
IC50 [12]: 79 µM

SMILES: O=C(NNC(=O)n1nnc2ccccc21)NC1CCCCC1
IC50 [12]: 79 µM

SMILES: O=C(NCCc1ccccc1)NNC(=O)n1nnc2ccccc21
IC50 [12]: 79 µM

IC50 [11]: 0.03 µM
SMILES: COc1cc(NC(C)CCCNC(=O)NNC(=O)/C=C/c2cc(C(F)(F)F)cc(C(F)(F)F)c2)c2ncccc2c1 (centres undefined)

IC50 [11]: 0.03 µM
SMILES: COc1cc(NC(C)CCCNC(=O)NNC(=O)/C=C/c2ccc(Cl)cc2)c2ncccc2c1 (centres undefined)

SMILES: COc1ccc(/C=C2\N=C(C)N(NC(=O)N3c4ccccc4C=Cc4ccccc43)C2=O)c(OC)c1
Activity [14]: 73.9%

SMILES: CCOC(=O)C1(NC(=O)NNc2ccc(F)cc2)CC1(C)C (centres undefined)
ED50 [15]: 9.2 mg/kg

IC50 [1]: 1 µM
IC50 [2]: 4 µM
IC50 [3]: 1.5 µM
SMILES: COc1cc(NC(C)CCCNC(=O)NNC(=O)NOC(=O)c2ccccc2)c2ncccc2c1 (centres undefined)

IC50 [16]: 2.17 µM
IC50 [17]: 8.39 µM
EC50 [18]: 1.05 µM
SMILES: O=C(NNC(=S)NCc1ccccc1)c1ccc(Nc2nccc(-c3ccccn3)n2)cc1

SMILES: CC(C)N1C(=O)C(=O)N(NCC(=O)N(c2ccccc2)C2(C(N)=O)CCCC2)C1=O
ED50 [4]: 34.4 mg/kg

SMILES: Cc1c(C(=O)NNC(=O)Nc2ccc([N+](=O)[O-])cc2)nnn1Cc1nc2ccccc2[nH]1
IC50 [19]: 25 µM
IC50 [20]: 32.8 µM
IC50 [21]: 16.6 µM
IC50 [22]: 19.1 µM

IC50 [16]: 2.17 µM
IC50 [17]: 8.39 µM
EC50 [18]: 1.05 µM
SMILES: CC(C)(C)NC(=O)NNC(=O)c1ccc(Nc2nccc(-c3ccncc3)n2)cc1

IC50 [23]: 16.8 µM
SMILES: COc1ccc(CC(=O)NNC(=O)Nc2ccccc2OC)cc1

SMILES: CNC(=O)NNC(=O)c1ccc(Cl)cc1
IC50 [24]: 22 µM

IC50 [1]: 1 µM
IC50 [2]: 4 µM
IC50 [3]: 1.5 µM
SMILES: COc1cc(NC(C)CCCNC(=O)NNC(=O)NCCc2ccccc2)c2ncccc2c1 (centres undefined)

SMILES: COc1cc(/C=C2\N=C(C)N(NC(=O)N3c4ccccc4C=Cc4ccccc43)C2=O)cc(OC)c1OC
Activity [14]: 73.9%

SMILES: O=C(NNC(=O)n1nnc2ccccc21)NC(c1ccccc1)c1ccccc1
IC50 [12]: 79 µM

IC50 [1]: 1 µM
IC50 [2]: 4 µM
IC50 [3]: 1.5 µM
SMILES: COc1cc(NC(C)CCCNC(=O)NNC(=O)NC2CCCCC2)c2ncccc2c1 (centres undefined)

IC50 [23]: 15.5 µM
SMILES: COc1ccc(NC(=O)NNC(=O)CCc2ccccc2OC)cc1

SMILES: COc1ccc(NC(=O)NNC(=O)c2oc3ccccc3c2CN2CCN(c3ccccc3)CC2)cn1
IC50 [25]: 74 µM
Activity [26]: 29.93%

SMILES: CC1=N/C(=C\c2ccc([N+](=O)[O-])cc2)C(=O)N1NC(=O)N1c2ccccc2C=Cc2ccccc21
Activity [14]: 73.9%

SMILES: COc1ccc(C(C)(C)C)cc1NC(=O)NNC1=NS(=O)(=O)c2ccccc2N1c1ccccc1
Activity [27]: 99%
Activity [28]: >=71%

IC50 [1]: 1 µM
IC50 [2]: 4 µM
IC50 [3]: 1.5 µM
SMILES: COc1cc(NC(C)CCCNC(=O)NNC(=O)NO)c2ncccc2c1 (centres undefined)
